Results on 1 molecule are retold here after ChEMBL document CHEMBL5370619, “Targeting the Tyrosine Kinase 2 (TYK2) Pseudokinase Domain: Discovery of the Selective TYK2 Inhibitor ABBV-712” (J Med Chem, 2023).

Series [1] deals with Mus musculus. The series can be described thus: Anti-inflammatory activity in B10.RII mouse model of mouse IL-23 mini circle induced psoriasiform dermatitis assessed as decrease in ear thickness at 100 mg/kg,po BID for 5 days by caliper analysis. Particulars: time 5 day. The series is classed as functional. The arrangement: scale not given: the % may be the effect or the level left.

Series [2] in a line: In vivo inhibition of TYK2 in IL-12/IL-18 induced C57/B6 mouse model assessed as reduction in serum IFN-gamma production at 10 mg/kg,po pretreated for 30 mins prior to IL-12/IL-18 challenge and measured after 4 hrs by MSD assay. Type of series: functional. Particulars: C57/B6, 4.5 h, time 270 min.
A short description of series [3]: Half life in dog at 1 mg/kg, iv. Type of series: ADME, organism-based, Canis lupus familiaris. Particulars: in vivo.
Series [4] can be described thus: Metabolic stability in dog hepatocytes assessed as intrinsic clearance for unbound fraction of drug. The series is classed as ADME, cell-based, Canis lupus familiaris, Hepatocyte.
The target in series [5] is T1, Tyrosine-protein kinase JAK3 (Homo sapiens, UniProt P52333).
T1 sequence (P52333 whole entry): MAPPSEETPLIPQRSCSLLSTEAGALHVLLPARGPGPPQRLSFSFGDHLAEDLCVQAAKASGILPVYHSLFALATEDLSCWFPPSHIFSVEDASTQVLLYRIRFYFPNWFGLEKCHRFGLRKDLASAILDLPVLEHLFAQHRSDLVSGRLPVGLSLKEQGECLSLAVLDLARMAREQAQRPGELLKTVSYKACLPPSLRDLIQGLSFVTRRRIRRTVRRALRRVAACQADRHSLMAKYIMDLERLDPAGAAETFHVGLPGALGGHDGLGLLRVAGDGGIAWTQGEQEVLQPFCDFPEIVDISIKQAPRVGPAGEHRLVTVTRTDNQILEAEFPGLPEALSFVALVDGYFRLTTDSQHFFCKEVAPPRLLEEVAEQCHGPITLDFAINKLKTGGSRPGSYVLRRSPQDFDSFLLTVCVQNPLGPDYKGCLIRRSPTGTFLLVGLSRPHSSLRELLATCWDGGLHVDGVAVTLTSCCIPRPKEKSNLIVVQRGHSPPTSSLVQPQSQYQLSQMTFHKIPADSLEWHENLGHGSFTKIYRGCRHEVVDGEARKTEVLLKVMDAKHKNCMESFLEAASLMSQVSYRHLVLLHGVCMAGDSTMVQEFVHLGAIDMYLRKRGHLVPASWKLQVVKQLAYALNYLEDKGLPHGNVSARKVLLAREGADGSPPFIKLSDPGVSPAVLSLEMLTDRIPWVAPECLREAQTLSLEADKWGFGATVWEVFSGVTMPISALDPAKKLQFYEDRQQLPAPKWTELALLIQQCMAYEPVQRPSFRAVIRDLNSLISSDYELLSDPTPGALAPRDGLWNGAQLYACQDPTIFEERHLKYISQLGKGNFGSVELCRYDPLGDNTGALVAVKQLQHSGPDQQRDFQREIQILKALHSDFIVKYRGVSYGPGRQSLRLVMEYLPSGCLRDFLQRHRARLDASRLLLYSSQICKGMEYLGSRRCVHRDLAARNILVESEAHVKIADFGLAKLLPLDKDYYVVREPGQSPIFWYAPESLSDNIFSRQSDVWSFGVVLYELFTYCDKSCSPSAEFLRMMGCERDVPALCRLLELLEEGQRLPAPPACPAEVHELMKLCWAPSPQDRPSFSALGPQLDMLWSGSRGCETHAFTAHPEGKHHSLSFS
The series is described as follows: Inhibition of JAK3 in human T-blast cells assessed as reduction in IL-2 induced STAT5 phosphorylation preincubated for 30 mins followed by IL-2 stimulation and measured after 20 mins by AlphaScreen assay. Type of series: cell-based, T-blast cell.

Series [6] is described as follows: Half life in cynomolgus monkey at 1 mg/kg, iv. Type of series: ADME, organism-based, Macaca fascicularis. Conditions: in vivo.
Series [7] is described as follows: In vivo inhibition of TYK2 in po dosed IL-12/IL-18 induced C57/B6 mouse model assessed as reduction in serum IFN-gamma production measured at 1 to 10000 ng/ml of whole blood drug exposure level measured after 30 mins. The series is classed as functional, organism-based. Particulars: C57/B6, 0.5 h.
Series [8] in a line: In vivo inhibition of TYK2 in IL-12/IL-18 induced C57/B6 mouse model assessed as reduction in serum IFN-gamma production at 30 mg/kg,po pretreated for 30 mins prior to IL-12/IL-18 challenge and measured after 4 hrs by MSD assay. The series is classed as functional. Conditions: C57/B6, 4.5 h, time 270 min.
Series [9] has as its target T2, CYP3A4 (Homo sapiens, UniProt P08684). The series can be described thus: Time dependent inhibition of CYP3A4 in human liver microsomes using midazolam as substrate assessed as 1'-OH midazolam metabolite formation at 50 uM preincubated for 30 mins in presence of NADPH followed by substrate addition and measured after 15 mins by HPLC-MS/MS analysis relative to control. Type of series: ADME, Microsome. Particulars: probe midazolam, time 45 min, read-out: TDI.

A short description of series [10]: Oral bioavailability in rat at 1 mg/kg. Type of series: ADME, organism-based. Conditions: in vivo.
The nature of series [11]: Oral bioavailability in dog at 1 mg/kg. The series is classed as ADME, organism-based, Canis lupus familiaris. Conditions: in vivo.
Series [12] has as its system Mus musculus. The series can be described thus: Anti-inflammatory activity in B10.RII mouse model of mouse IL-23 mini circle induced psoriasiform dermatitis assessed as decrease in ear thickness at 100 mg/kg,po QD for 5 days by caliper analysis. Conditions: time 5 day. The series is classed as functional. The arrangement: scale not given: the % may be the effect or the level left.

Series [13] is described as follows: Unbound clearance in rat blood at 1 mg/kg, iv or 1 mg/kg,po. Type of series: ADME, organism-based. Particulars: in vivo.
In series [14] the target is T2, CYP3A4. The series can be described thus: Induction of CYP3A4 in human hepatocytes assessed as fold increase in mRNA level at 10 uM incubated for 24 hrs by RT-qPCR analysis relative to control. The series is classed as ADME, cell-based, Hepatocyte. Conditions: read-out: FC.
Series [15] can be described thus: In vivo inhibition of TYK2 in IL-12/IL-18 induced C57/B6 mouse model assessed as reduction in serum IFN-gamma production at 100 mg/kg,po pretreated for 30 mins prior to IL-12/IL-18 challenge and measured after 4 hrs by MSD assay. The series is classed as functional. Particulars: C57/B6, 4.5 h, time 270 min.
The nature of series [16]: Unbound clearance in dog blood at 1 mg/kg, iv. The series is classed as ADME, organism-based, Canis lupus familiaris. Conditions: in vivo.
Series [17] is described as follows: Volume of distribution at steady state in rat at 1 mg/kg, iv or 1 mg/kg,po. The series is classed as ADME, organism-based. Particulars: in vivo, read-out: Vdss.
Series [18] is described as follows: In vivo inhibition of TYK2 in IL-12/IL-18 induced C57/B6 mouse model assessed as reduction in serum IFN-gamma production at 300 mg/kg,po pretreated for 30 mins prior to IL-12/IL-18 challenge and measured after 4 hrs by MSD assay. Type of series: functional. Conditions: C57/B6, 4.5 h, time 270 min.
Series [19] addresses T3, Non-receptor tyrosine-protein kinase TYK2 (Homo sapiens, UniProt P29597). The series is described as follows: Inhibition of TYK2 in human T-blast cells assessed as IL-12 induced STAT4 phosphorylation at Tyr694 residue preincubated for 30 mins followed by IL-12 stimulation and measured after 20 mins by AlphaScreen assay. Type of series: cell-based, T-blast cell.
For series [20], the system named is Mus musculus. The series is described as follows: Anti-inflammatory activity in B10.RII mouse model of mouse IL-23 mini circle induced psoriasiform dermatitis assessed as decrease in ear thickness at 10 mg/kg,po BID for 5 days by caliper analysis. The series is classed as functional. The arrangement: scale not given: the % may be the effect or the level left. Conditions: time 5 day.

The nature of series [21]: Thermodynamic solubility in PBS at pH 7.4. The series is classed as physicochemical. Particulars: read-out: Therm_solubility.
Series [22] is described as follows: AUC (0 to infinity) in dog at 1 mg/kg,po. The series is classed as ADME, organism-based, Canis lupus familiaris. On the set-up: dose 1 mg/kg, route po. Particulars: in vivo.
The target of series [23] is T3, Non-receptor tyrosine-protein kinase TYK2. The series is described as follows: Inhibition of TYK2 in human whole blood assessed as decrease in STAT4 phosphorylation preincubated for 30 mins followed by human IL-23 stimulation and measured after 20 mins by flow cytometry. The series is classed as tissue-based.

Converted amounts (≈) assume the structure as drawn. Bounds are passed on as bounds.

T2 sequence (P08684 whole entry): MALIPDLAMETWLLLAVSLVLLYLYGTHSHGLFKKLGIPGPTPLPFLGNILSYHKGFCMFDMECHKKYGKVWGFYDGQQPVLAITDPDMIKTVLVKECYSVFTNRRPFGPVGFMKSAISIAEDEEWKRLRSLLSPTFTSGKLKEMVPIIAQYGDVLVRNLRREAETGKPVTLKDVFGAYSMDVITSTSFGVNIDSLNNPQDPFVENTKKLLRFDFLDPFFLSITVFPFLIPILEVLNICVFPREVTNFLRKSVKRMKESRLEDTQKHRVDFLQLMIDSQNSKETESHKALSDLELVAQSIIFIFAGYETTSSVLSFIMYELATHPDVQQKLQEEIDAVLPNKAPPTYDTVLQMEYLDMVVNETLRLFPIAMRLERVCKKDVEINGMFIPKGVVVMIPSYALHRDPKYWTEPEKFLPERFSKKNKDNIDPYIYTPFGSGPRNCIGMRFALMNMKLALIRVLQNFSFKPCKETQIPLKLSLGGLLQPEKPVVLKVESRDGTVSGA
T3 sequence (P29597 whole entry): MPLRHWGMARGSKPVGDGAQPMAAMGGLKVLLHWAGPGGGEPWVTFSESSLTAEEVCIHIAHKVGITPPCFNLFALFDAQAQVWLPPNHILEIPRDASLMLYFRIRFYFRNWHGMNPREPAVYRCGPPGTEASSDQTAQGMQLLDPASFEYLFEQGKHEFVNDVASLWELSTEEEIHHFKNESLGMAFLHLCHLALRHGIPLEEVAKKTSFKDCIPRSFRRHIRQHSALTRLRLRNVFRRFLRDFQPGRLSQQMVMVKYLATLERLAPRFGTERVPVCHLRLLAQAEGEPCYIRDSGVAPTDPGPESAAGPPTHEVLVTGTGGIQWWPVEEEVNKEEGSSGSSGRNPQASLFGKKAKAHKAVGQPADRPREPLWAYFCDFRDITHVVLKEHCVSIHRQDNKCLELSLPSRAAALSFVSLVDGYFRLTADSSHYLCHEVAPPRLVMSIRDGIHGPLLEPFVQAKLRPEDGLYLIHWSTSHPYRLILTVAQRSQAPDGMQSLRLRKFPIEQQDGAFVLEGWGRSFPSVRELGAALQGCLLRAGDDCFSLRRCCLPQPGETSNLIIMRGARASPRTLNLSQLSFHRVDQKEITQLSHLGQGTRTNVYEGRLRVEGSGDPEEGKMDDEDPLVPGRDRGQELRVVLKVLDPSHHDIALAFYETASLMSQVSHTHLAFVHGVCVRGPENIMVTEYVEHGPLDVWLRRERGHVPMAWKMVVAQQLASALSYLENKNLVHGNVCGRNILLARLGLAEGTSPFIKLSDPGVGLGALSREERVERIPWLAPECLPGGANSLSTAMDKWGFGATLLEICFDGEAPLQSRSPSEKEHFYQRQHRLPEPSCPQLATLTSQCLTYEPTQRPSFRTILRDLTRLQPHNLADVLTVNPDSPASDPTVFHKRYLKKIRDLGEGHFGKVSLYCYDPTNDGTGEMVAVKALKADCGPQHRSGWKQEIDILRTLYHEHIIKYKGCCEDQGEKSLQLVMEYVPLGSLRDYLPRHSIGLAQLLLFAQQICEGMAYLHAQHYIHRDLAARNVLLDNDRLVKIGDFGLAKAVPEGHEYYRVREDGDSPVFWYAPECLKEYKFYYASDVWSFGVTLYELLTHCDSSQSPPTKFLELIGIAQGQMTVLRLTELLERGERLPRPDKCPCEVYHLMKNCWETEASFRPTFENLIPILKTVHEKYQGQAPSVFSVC

Consider `COCc1cc(-c2cn(C3COC3)c3cnc(NC(C)=O)cc23)nc([C@]2(OC)CCOC2)c1`, for which the Activity was 61% with Mus musculus [1], 58% with Mus musculus [12] and 38% in the series with Mus musculus [20]. Further, the inhibition in vivo at 10 mg/kg in series [2] worked out at 24%. Besides, the figures for the half-life in series [3] and in series [6] were 4.5 h and 1.2 h, respectively. The CL free in series [4] worked out at 21.7 mL/min/kg; in [13], 68.3 mL/min/kg; in [16] it was 7.67 mL/min/kg. For the same molecule, the EC50 in [5] was more than 20000 nM; in [19], 195 nM; in series [23], 160 nM. Further, the IC50 in series [7] was found to be 3.08 µg/mL (≈ 6.81 µM). For the same molecule, the inhibition in vivo at 30 mg/kg in [8] came out at 77%. The inhibition at 0.25 h, 50 µM at CYP3A4 [9] worked out at 22%. For the same molecule, the values for the bioavailability in series [10] and in [11] were 19% and 88%, respectively. At CYP3A4 [14], the fold induction at 24 h, 10 µM is 1.5. Besides, the inhibition in vivo at 100 mg/kg in series [15] was 84%. Further, in series [17], the Vd came out at 1.9 L/kg. Besides, in [18], the inhibition in vivo at 300 mg/kg was determined as 95%. Moreover, in series [21], the solubility thermodynamic came out at 708 µM (≈ 320 µg/mL). The molecule further registered an AUC(0-inf) in [22] of 2300 ng·h/mL.
